Reference: patent US20060160847A1, “2,4-Dihalogen-6-(c2-c3alkyl)-phenyl substituted tetramic acid derivatives” (priority 2003, published 2006)

Columns and labels:
Format in all cases: in vivo
[1] = test system: green peach aphid (Myzus persicae); assay: Myzus test; conditions: infested cabbage leaves dipped
Procedure: (§1) Myzus Test [table] To produce a suitable preparation of active compound, 1 part by weight of active compound is mixed with the stated amounts of solvent and emulsifier, and the concentrate is diluted with emulsifier-containing water to the desired concentration. Cabbage leaves (Brassica oleracea) which are heavily infested by the green peach aphid (Myzus persicae) are treated by being dipped into the preparation of active compound of the desired concentration. After the desired period of time, the kill in % is determined. 100% means that all aphids have been killed; 0% means that none of the aphids have been killed.

Test plants [2] = assay: Post-emergence test; conditions: greenhouse
Procedure: To produce a suitable preparation of active compound, 1 part by weight of active compound is mixed with the stated amount of solvent, the stated amount of emulsifier is added and the concentrate is diluted with water to the desired concentration.
Test plants of a height of 5-15 cm are sprayed with the preparation of active compounds such that the particular amounts of active compound desired are applied per unit area. The concentration of the spray liquor is chosen such that the particular amounts of active compound desired are applied in 1000 l of water/ha.
After three weeks, the degree of damage to the plants is rated in % damage in comparison to the development of the untreated control.
0%=no effect (like untreated control)

[3] = test system: cotton aphids (Aphis gossypii); assay: Aphis gossypii test; conditions: active compound concentration 200 ppm, infested cotton leaves dipped
Procedure: as §1, with “Aphis Gossypii” for “Myzus”, “Cotton” for “Cabbage”, “(Gossypium hirsutuni)” for “(Brassica oleracea)”, “cotton aphids (Aphis gossypii)” for “the green peach aphid (Myzus persicae)”

Test plants [4] = assay: Pre-emergence test; conditions: greenhouse
Procedure: Pre-Emergence Test [[[…]]] To produce a suitable preparation of active compound, 1 part by weight of active compound is mixed with the stated amount of solvent, the stated amount of emulsifier is added and the concentrate is diluted with water to the desired concentration. Seeds of the test plants are sown in normal soil. After about 24 hours, the soil is sprayed with the preparation of active compound such that the particular amounts of active compound desired are applied per unit area. The concentration of the spray liquor is chosen such that the particular amounts of active compound desired are applied in 1000 l of water/ha. After three weeks, the degree of damage to the plants is rated in % damage in comparison to the development of the untreated control. The figures denote: 0%=no effect (like untreated control) 100%=total destruction

[5] = test system: white fly (Bemisia tabaci) eggs, larvae and puparia; assay: Bemisia test; conditions: active compound concentration 40 ppm, infested cotton plants sprayed
Procedure: Bemisia Test [table] To produce a suitable preparation of active compound, 1 part by weight of active compound is mixed with the stated amounts of solvent and emulsifier, and the concentrate is diluted with water to the desired concentration. Cotton plants (Gossypium hirsutum) which are infested by white fly (Bemisia tabaci) eggs, larvae and puparia are sprayed with the preparation of active compound of the desired concentration. After the desired period of time, the kill in % is determined. 100% means that all animals have been killed; 0% means that none of the animals have been killed.

[6] = test system: larvae of the mustard beetle (Phaedon cochleariae); assay: Phaedon larvae test; conditions: 100 ppm active compound, Phaedon cochleariae larvae on dipped cabbage leaves
Procedure: Phaedon Larvae Test [[[…]]] To produce a suitable preparation of active compound, 1 part by weight of active compound is mixed with the stated amounts of solvent and emulsifier, and the concentrate is diluted with emulsifier-containing water to the desired concentration. Cabbage leaves (Brassica oleracea) are treated by being dipped into the preparation of active compound of the desired concentration and are populated with larvae of the mustard beetle (Phaedon cochleariae) while the leaves are still moist. After the desired period of time, the kill in % is determined. 100% means that all beetle larvae have been killed; 0% means that none of the beetle larvae have been killed.

[7] = test system: green rice leaf hopper (Nephotettix cincticeps); assay: Nephotettix test; conditions: rice seedlings dipped
Procedure: (§2) To produce a suitable preparation of active compound, 1 part by weight of active compound is mixed with the stated amounts of solvent and emulsifier, and the concentrate is diluted with emulsifier-containing water to the desired concentration.
Rice seedlings (Oryza satina) are treated by being dipped into the preparation of active compound of the desired concentration and are populated wraith the green rice leaf hopper (Nephotettix cincticeps) while the leafs are still moist.
After the desired period of time, the kill in % is determined. 100% means that all leaf hoppers have been killed; 0% means that none of the leaf hoppers have been killed.

[8] = test system: greenhouse red spider mite (Tetranychus urticae); assay: Tetranychus test (OP-resistant/dip treatment); conditions: 1.6 ppm active compound, Tetranychus urticae on dipped bean plants
Procedure: Tetranychus Test (OP-Resistant/Dip Treatment)
as §2
Bean plants (Phaseolus vulgaris) which are heavily infested by all stages of the greenhouse red spider mite (Tetranychus urticae) are dipped into a preparation of active compound of the desired concentration.
After the desired period of time, the effect in % is determined. 100% means that all spider mites have been killed; 0% means that none of the spider mites have been killed.

[9] = active compound concentration 8 ppm

## CCc1cc(Cl)cc(Cl)c1C1=C(O)C2(CCC(C)CC2)NC1=O (single isomer, unassigned) [Ex. I-a-2]
[1]; [9]
  Kill rate in % after 6^d: 95%
Test plants [2]; 125 g of a.i./ha
  % damage, Bromus: 90%
  % damage, Echinochloa: 100%
  % damage, Lolium: 100%
  % damage, Sorghum: 100%
Test plants [2]; 125 g of a.i./ha, cotton
  % damage, cotton: 0%
[3]
  Kill rate in % after 6^d: 90%

## CCc1cc(Cl)cc(Cl)c1C1=C(O)C2(CCC(OC)CC2)NC1=O (single isomer, unassigned) [Ex. I-a-3]
[1]; [9]
  Kill rate in % after 6^d: 85%
Test plants [4]; 30 g of a.i./ha
  % damage, Alopecurus: 100%
  % damage, Avena fatua: 70%
  % damage, Digitaria: 100%
  % damage, Lolium: 100%
Test plants [4]; 30 g of a.i./ha, Setaria
  % damage, Setaria: 100%
Test plants [4]; 30 g of a.i./ha, cotton
  % damage, cotton: 0%
Test plants [4]; 30 g of a.i./ha, sugar beet
  % damage, sugar beet: 0%
Test plants [2]; 250 g of a.i./ha
  % damage, Alopecurus: 100%
  % damage, Avena fatua: 100%
  % damage, Sinapis: 80%

## CCc1cc(Br)cc(Cl)c1C1=C(O)C2(CCC(C)CC2)NC1=O (single isomer, unassigned) [Ex. I-a-6]
Test plants [4]; 60 g of a.i./ha
  % damage, Avena fatua: 90%
  % damage, Echinochloa: 100%
  % damage, Lolium: 95%
  % damage, soybean: 0%
Test plants [4]; 60 g of a.i./ha, Veronica
  % damage, Veronica: 100%
Test plants [4]; 60 g of a.i./ha, wheat
  % damage, wheat: 0%
Test plants [2]; 60 g of a.i./ha
  % damage, Abutilon: 70%
  % damage, Echinochloa: 95%
  % damage, Lolium: 90%
  % damage, Setaria: 100%
  % damage, Sorghum: 90%

## CCc1cc(Br)cc(Cl)c1C1=C(O)C2(CCC(OC)CC2)NC1=O (single isomer, unassigned) [Ex. I-a-7]
[1]; active compound concentration 1.6 ppm
  Kill rate in % after 6^d: 65%
Test plants [4]; 125 g of a.i./ha
  % damage, Avena fatua: 95%
  % damage, Bromus: 100%
  % damage, Echinochloa: 100%
Test plants [4]; 125 g of a.i./ha, Matricaria
  % damage, Matricaria: 80%
Test plants [2]; 250 g of a.i./ha
  % damage, Abutilon: 80%
  % damage, sugar beet: 0%
Test plants [2]; 250 g of a.i./ha, Amaranthus
  % damage, Amaranthus: 70%
Test plants [2]; 250 g of a.i./ha, Cyperus
  % damage, Cyperus: 80%

## CCc1cc(Cl)cc(Br)c1C1=C(O)C2(CCC(OC)CC2)NC1=O (single isomer, unassigned) [Ex. I-a-10]
Test plants [4]; 125 g of a.i./ha
  % damage, Alopecurus: 100%
  % damage, Avena fatua: 90%
  % damage, Bromus: 90%
  % damage, Digitaria: 100%
  % damage, soybean: 0%
Test plants [2]; 30 g of a.i./ha
  % damage, Alopecurus: 95%
  % damage, Avena fatua: 95%
  % damage, Bromus: 90%
  % damage, Lolium: 95%
  % damage, Setaria: 100%
  % damage, sugar beet: 0%
Test plants [2]; 30 g of a.i./ha, Digitaria
  % damage, Digitaria: 100%

## CCc1cc(Br)cc(Cl)c1C1=C(OC(=O)C(C)C)C2(CCC(C)CC2)NC1=O (single isomer, unassigned) [Ex. I-b-2]
Test plants [4]; 30 g of a.i./ha
  % damage, Digitaria: 70%
  % damage, Echinochloa: 70%
  % damage, Lolium: 95%
  % damage, soybean: 0%
Test plants [4]; 30 g of a.i./ha, corn
  % damage, corn: 0%
[5]
  Kill rate in % after 10^d: 100%

## CCOCC(=O)OC1=C(c2c(Cl)cc(Br)cc2CC)C(=O)NC12CCC(C)CC2 (single isomer, unassigned) [Ex. I-b-3]
[6]
  Kill rate in % after 7d: 100%
[7]; active compound concentration 0.1 ppm
  Kill rate in % after 6^d: 40%

## CCc1cc(Cl)cc(Cl)c1C1=C(O)C2(CCOCC2)NC1=O [Ex. I-a-5]
Test plants [2]; 250 g of a.i./ha
  % damage, Alopecurus: 95%
  % damage, Avena fatua: 100%
  % damage, Setaria: 100%
  % damage, Sinapis: 70%

## CCc1cc(Cl)cc(Br)c1C1=C(O)C(C)(C)NC1=O [Ex. I-a-11]
Test plants [2]; 250 g of a.i./ha
  % damage, Alopecurus: 100%
  % damage, Setaria: 100%
  % damage, sugar beet: 0%
[7]; active compound concentration 10 ppm
  Kill rate in % after 6^d: 100%
[8]
  Kill rate in % after 14d: 80%
